Results published in US12465614B2, “Budesonide 21-phosphate salts and pharmaceutical compositions containing the same” (GENETIC S.P.A., priority 2020, dated 2025).
Entries after “also recorded” stand apart in the source; their conditions may differ.

Experiments:
Type in all cases: in vivo
OVA-sensitized mice [1] = conditions: mouse, in vivo
OVA-sensitized mice [2] = assay: Bronchial relaxation to salbutamol, isolated bronchi of OVA-sensitized mice (Experimental Groups I); conditions: 1 mg/Kg i.p.; rings precontracted with carbachol; vs OVA group; FIG. 10B
IgE = assay: Plasma IgE levels in OVA-sensitized mice, ELISA (Experimental Groups I); conditions: 1 mg/Kg i.p.; vs OVA group; FIG. 10 panel C
Protocol: Female Balb/c (8-week-old, Charles River, Calco, Italy) were housed in the animal care facility of the Department of Pharmacy of the University of Naples, Italy in a controlled environment (temperature 21±2° C. and humidity 60±10%) and provided with standard rodent chow and water. All animals were allowed to acclimate for four days prior to experiments and were subjected to 12 h light−12 h dark schedule. Experiments were conducted during the light phase. The experimental procedures were approved by the Italian Ministry according to International and National law and policies (EU Directive 2010/63/EU and Italian DL 26/2014 for animal experiments). […] The compounds were dissolved in DMSO (Sigma Chemical Co., St. Louis, MO) at concentrations at which the determined dose per animal results from the intraperitoneal administration of 100 μl of solution (1:10 DMSO) and intra-nasal (i.n.) administration of 10 μl/animal (5 μl/nostril) of the solutions. […] Plasma levels of IgE were measured as index of sensitization. […] Total IgE levels were measured by means of ELISA using matched antibody pairs (BD Biosciences Pharmingen San Jose, CA).

[3] = test system: mice with OVA-induced allergic asthma; assay: Lung hyperreactivity/Penh function, whole body plethysmography, intra-nasal FB, F, B (Experimental Groups II); conditions: i.n. daily 2 weeks, all tested doses: FB 0.3, 1.0, 3.0 nmol/animal, vs untreated OVA group
[4] = test system: mice with OVA-induced allergic asthma; assay: BAL fluid cell counts (Experimental Groups II); conditions: for total leukocytes in BAL fluid: vs untreated OVA group
Protocol: (§1) Male Balb/c SPF mice (25*2 g, 6-week-old) were purchased from the animal house facilities at the São Paulo School of Medicine (Federal University of São Paulo, Brazil). They were group-housed in a temperature-controlled room at 22° C. with a 12/12-hour light/dark cycle and allowed free access to food and water. The study is in agreement with the Ethical Principles for Animal Research established by the Brazilian College for Animal Experimentation (COBEA). According to the internal laboratory rules, euthanasia is performed if severe distress related to the test agents developed during the experiment. […] The compounds were dissolved in DMSO (Sigma Chemical Co., St. Louis, MO) at concentrations at which the determined dose per animal results from the intraperitoneal administration of 100 μl of solution (1:10 DMSO) and intra-nasal (i.n.) administration of 10 μl/animal (5 μl/nostril) of the solutions. Mice were sensitized with two subcutaneous injections of 0.4 ml of OVA/Al(OH)3, with an interval of 7 days (Sham animals received the Al(OH)3 suspension in PBS with no OVA). Seven days after the second sensitization (i.e., 3rd week), the animals were nebulized twice a week with the 1% OVA solution (Sham and untreated OVA groups were nebulized with PBS) during 20 minutes for the next 2 weeks. Sixty minutes before the challenges (OVA nebulization) and daily during the next 4 weeks, mice were intra-nasally treated (10 μl/animal as 5 μl/nostril) with the respective compounds/vehicle. After Penh evaluation, the mice were anesthetized with inhaled isofluorane (5% v/v in O2) and blood samples were collected from the descending abdominal aorta. The mice were then euthanized by exsanguination (blood samples were collected from each animal for leukocyte cell counting), and bronchoalveolar lavage (BAL) was performed by exposing and cannulating the trachea with a polyethylene tube (1 mm outer diameter) connected to a syringe. The lungs were washed by flushing 300 μL of heparin-containing PBS solution (20 Ul/mL). The retrieved BAL lavage aliquots were obtained, and the same procedure was repeated four additional times. The samples were submitted to centrifugation (1000 g for 10 min) and the cell pellet was resuspended in 200 μL of PBS solution. Total cell counts were determined using a Neubauer chamber, and differential counting was carried out in cytospin (Fanem Mod 2400; São Paulo, Brazil) preparations stained with May-Grünwald dye. Leukocytes were classified based on normal morphological criteria.

[5] = test system: mice with OVA-induced allergic asthma; assay: Circulating leukocyte cell counts (Experimental Groups II)
Protocol: as §1

[6] = i.n., all treatments: FB 0.3, 1.0, 3.0 nmol/animal, F and B 3.0 nmol/animal

Budesonide 21-phosphate formoterol salt [FB]
bronchial hyperreactivity (increased response of isolated bronchi to carbachol) (OVA-sensitized mice [1]): Significant reduction of the bronchial hyperreactivity | bronchial relaxation to salbutamol (OVA-sensitized mice [2]): significantly increased bronchial relaxation | OVA induced increase of IgE plasma levels (IgE): significantly reduced OVA induced increase of IgE plasma levels | area under the Penh-metacholine concentration curve (AUC) ([3]; B 3.0 nmol/animal): significantly reduced Penh at all the MCh doses tested; also recorded: abolished | Penh maximal response Emax to inhaled metacholine ([3]; F and B 3.0 nmol/animal): Significant reduction of the maximal response Emax; also recorded: abolished | total leukocytes in BAL fluid ([4]; 0.3 nmol/animal i.n.): significantly reduced | OVA-induced increase of BAL macrophages ([4]; 3 nmol/animal i.n.): abolished the OVA-induced increase of BAL macrophages | total leukocytes in BAL fluid ([4]; 3 nmol/animal i.n.): significantly reduced | eosinophils in BAL samples [4, 6]: significantly controlled | circulating macrophages ([5]; 0.3 nmol/animal i.n.): potent lowering effect | total leukocytes in blood samples ([5]; 3 nmol/animal i.n., vs untreated OVA group): significantly reduced; also recorded: almost abolished | circulating lymphocytes ([5]; 3 nmol/day i.n., vs untreated allergic animals): lower number of circulating cells than the untreated allergic animals | circulating eosinophils vs control Sham animals ([5]; highest dose (3 nmol/animal i.n.)): even lower than in the control Sham animals | circulating macrophages ([5]; i.n., FB all tested doses (0.3, 1.0, 3.0 nmol/animal), B and F 3 nmol/animal): significantly reduced the number of macrophages; also recorded: reduced the number of these cells to values lower than those observed in the control animals | circulating eosinophils [5, 6]: decreased by FB treatment at all the tested doses

COc1ccc(CC(C)NCC(O)c2ccc(O)c(NC=O)c2)cc1 (stereo not shown) [F, N-[2-hydroxy-5-[1-hydroxy-2-[[2-(p-methoxyphenyl)-2-propy]-amino]-ethyl]-phenyl]-formamide, reference compound]
bronchial relaxation to salbutamol (OVA-sensitized mice [2]): did not ameliorate the lack of bronchial response to salbutamol
